From patent US10220022B2, “Compositions and methods employing Wolbachia FtsZ as a target for Albendazole sulfone” (The Regents of the University of California, priority 2011, dated 2019)

Experiments:
[1] = tested on: Wolbachia-infected JW18 cells; experiment: High-throughput screen for compounds reducing Wolbachia infection of JW18 cells; format: cell-based, Drosophila; settings: 100 uM per well, 5-day incubation at 25 C, 3 replicates
Method: Cells were plated in 384-well, clear bottom plates (Griener Bio-one) pre-coated with 0.5 mg/mL Concanavalin A. JW18 cells were added to 22 columns, and JW18TET cells were added to the remaining 2 columns at a dilution of 6500 cells per well. After the cells adhered to the plates, compounds were transferred into 20 columns of JW18 cells in the center of the plate using a Janus MDT pin tool. The final concentration of compound was 100 uM per well. All treatments were distributed into 3 plate replicates.
After a 5-day incubation with the compounds at 25 C, the cells were prepared for imaging. Cells were fixed for 20 minutes in 4% formaldehyde and rinsed with PBS using an automated BioTek liquid handler. All staining solutions were administered using a Multidrop robot, with extensive rinsing between treatments. The primary antibody, mouse anti histone (MAB052, Millipore), was used at 1:1250 in PBS/0.1% Triton. Secondary antibody goat anti-mouse Alexa 594 (Invitrogen) was used at 1:1250. DAPI was used as a saturated solution, diluted to a final concentration of 1:40. After staining, PBS+Azide was added to all wells of the plates.
Stained treatment plates were imaged using the MetaExpress Micro system (Molecular Devices, Sunnyvale Calif.). 10 images were acquired per well at 40× magnification. These images were next analyzed using customized journaling software provided by Molecular Devices. The journal first masks any areas where clumps of cells are detected, based upon intensity of the Jupiter-GFP. The boundaries of the remaining cells and their nuclei are recognized based upon the Jupiter-GFP and anti-histone stains. A mask is applied to the nuclei, to obscure the hi stone and DAPI signal from those areas. A threshold for DAPI fluorescence detection is set to detect as much Wolbachia as possible in JW18 control cells while minimizing detection of background DAPI signal in JW18TET control cells. Then this cytoplasmic DAPI level, read to indicate Wolbachia, is scored in the cytoplasm of individual cells to determine whether each cell is infected with Wolbachia. The cutoff value distinguishing “infected” from “uninfected” cells is 4000-5000 fluorescence units per cell.
A spreadsheet from the journal indicates the quantity of Wolbachia-infected cells versus total cells measured in each well. A Z′ factor is calculated for each plate based upon the average frequency of cell infection for JW18 and JW18TET control cells. […] An initial hit range is calculated to lie between the JW18 average infection frequency−3 standard deviations, and the average JW18TET infection frequency+3 standard deviations. To further refine identification of hits, we also calculated an average infection frequency for all JW18 cells on the plate (treated or not), as most treatment wells are expected to be indistinguishable from untreated controls. Wells are that lie within 3 standard deviations of the mean are exluded, and remaining wells are classified as hits within that replicate. Hit wells that are identified in at least 2 out of 3 replicates are considered to be finalized hits.
In this screen, 3081 compounds froth the National Cancer Institute were used. […] Cells were incubated for 5 days with each compound, then fixed, stained, and imaged using automated robotics (FIG. 2). Customized analysis software was used to compare the images from compound-treated wells to the control cells to assay for significant changes in the quantity of Wolbachia-infected cells. All treatment plates were run in triplicate.

[2] = tested on: Streptococcus pyrogenes; settings: prior screen; cited from earlier work
[3] = tested on: Wolbachia; experiment: Wolbachia titer in Drosophila oogenesis after drug feeding; format: in vivo; settings: 24-hour treatment, counts from single oocyte focal planes; DMSO control 225+/−18
Excerpt: (§1) Drug feeding conditions: Fly feeding we done as previously described.
(§2) Staining: Drosophila Ovary staining was done with PI, anti-tubuli. Drosophila Embryo staining was done with anti-FtsZ. Brugia microfilarial staining was done with PI, anti-tubulin, and anti-FtsZ.
As Albendazole is already a widely used, FDA-approved drug, we proceeded to test it and the primary metabolites Albendazole sulfoxide and Albendazole sulfone for anti-Wolbachia effects in Drosophila oogenesis. This system provides a high-precision method for assessing Wolbachia titer in a well-characterized developmental context.

[4] = tested on: oocyte microtubule cytoskeleton; experiment: Posterior Wolbachia localization in treated oocytes; format: in vivo; settings: treated Drosophila oocytes; DMSO controls 95%
Excerpt: as §1, §2
(§3) To address whether Albendazole sulfone acts on Wolbachia by disrupting the oocyte microtubule cytoskeleton, a combination of approaches was used. It has previously been shown that Wolbachia concentrate at the oocyte posterior cortex in a microtubule-dependent manner. […] We also examined the cytoskeleton directly by immunolabeling the microtubules.

[5] = tested on: oocyte microtubule cytoskeleton; experiment: Immunolabeling of oocyte microtubules; format: in vivo, Drosophila; settings: immunolabeling of the microtubules, stage 10A oocytes
Excerpt: as §2, §3

[6] = tested on: B. malayi microtubules; experiment: Microtubule staining of treated Brugia malayi microfilariae; settings: compound fed to Brugia malayi microfilariae
Excerpt: as §2
(§4) To investigate whether Albendazole sulfone disrupts Walbachia FtsZ, we fed this compound to Brugia malayi microfilariae, which carry Wolbachia as an essential endosymbiont. […] This is consistent with the predicted benzimidazole susceptibility of B. malayi beta tubulin (FIG. 5).
(§5) In view of the above the inventors posed the questions: By what mechanism does Albendazole sulfone act against Wolbachia FtsZ? And is FtsZ disruption a consequence of host microtubule disassembly, or due to a separate effect on FtsZ by Albendazole sulfone? […] To further test whether Wolbachia FtsZ relies on host microtubules, we also treated Brugia with the microtubule-disrupting drug Colchicine.

[7] = tested on: Wolbachia FtsZ; experiment: FtsZ immunostaining in treated Brugia malayi microfilariae; settings: compound fed to Brugia malayi microfilariae
Excerpt: as §2, §4, §5

[8] = tested on: beta-tubulin; settings: relative to Albendazole sulfoxide; cited from earlier work
[9] = target: M. tuberculosis FtsZ (Mycobacterium tuberculosis, UniProt P9WN95); settings: cited from earlier work
Chain of M. tuberculosis FtsZ (P9WN95 whole entry): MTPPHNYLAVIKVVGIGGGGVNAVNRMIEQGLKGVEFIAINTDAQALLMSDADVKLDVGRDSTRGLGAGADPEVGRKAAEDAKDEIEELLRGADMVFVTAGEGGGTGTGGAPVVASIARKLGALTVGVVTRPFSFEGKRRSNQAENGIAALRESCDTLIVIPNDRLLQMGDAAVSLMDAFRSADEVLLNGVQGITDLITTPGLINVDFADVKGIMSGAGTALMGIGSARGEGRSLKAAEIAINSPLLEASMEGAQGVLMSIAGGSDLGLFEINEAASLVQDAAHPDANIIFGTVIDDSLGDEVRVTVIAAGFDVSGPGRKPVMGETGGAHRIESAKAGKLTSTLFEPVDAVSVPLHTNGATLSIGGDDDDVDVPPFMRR

SMILES: CCN1/C(=C/C(C)=C/c2sc3ccccc3[n+]2CC)Sc2ccccc21.[I-] [NSC96932]
- reduction of Wolbachia-infection frequency (screen hit) [1]: hits
- antibacterial activity [2]: exert antibacterial activity

SMILES: CCC[S+]([O-])c1ccc2[nH]c(NC(=O)OC)nc2c1 (stereo not drawn) [Albendazole sulfoxide]
- Wolbachia per oocyte [3]: 255+/−27 Wolbachia per oocyte

SMILES: COC1=C(C)C(=O)C2=C(C1=O)[C@H](COC(N)=O)[C@@]1(O)[C@@H]3[C@H](CN21)N3C (stereo partly drawn) [Mitomycin B]
- reduction of Wolbachia-infection frequency (screen hit) [1]: hits

SMILES: CCCS(=O)(=O)c1ccc2nc(NC(=O)OC)[nH]c2c1 [Albendazole sulfone]
- Wolbachia per oocyte [3]: 150+/−13 Wolbachia per oocyte
- oocytes with posterior Wolbachia localization [4]: 93%
- oocyte microtubule structure [5]: fibrillar microtubule arrays
- effect on Brugia host microtubules [6]: widespread disruption of B. malayi microtubules
- effect on Wolbachia FtsZ [7]: FtsZ was also disrupted in most
- potency as disrupter of beta-tubulin [8]: far less potent disrupter of beta-tubulin than Albendazole sulfoxide

SMILES: O=[N+]([O-])/C=C/c1cc2ccccc2[nH]1 [NSC150982]
- reduction of Wolbachia-infection frequency (screen hit) [1]: anti-Wolbachia

SMILES: C[C@H]1c2cccc(O)c2C(=O)C2=C(O)[C@]3(O)C(=O)C(C(N)=O)=C(O)[C@@H](N(C)C)[C@@H]3[C@@H](O)[C@@H]21 [Doxycycline]
- Wolbachia per oocyte [3]: 126+/−11 Wolbachia per oocyte

SMILES: COc1cc2c(c(OC)c1OC)-c1ccc(OC)c(=O)cc1[C@@H](NC(C)=O)CC2 [Colchicine, reference compound]
- oocytes with posterior Wolbachia localization [4]: 21%
- oocyte microtubule structure [5]: devoid of filamentous structure
- effect on Brugia host microtubules [6]: severely disrupted host microtubules
- effect on Wolbachia FtsZ [7]: FtsZ remained concentrated near Wolbachia DNA

SMILES: O=C(CSc1nc2ccccc2s1)c1sc2sc3ccccc3[n+]2c1O [NSC339601]
- reduction of Wolbachia-infection frequency (screen hit) [1]: anti-Wolbachia

SMILES: CN1CCN(c2ccc([N+](=O)[O-])c3no[n+]([O-])c23)CC1 [NSC207895]
- reduction of Wolbachia-infection frequency (screen hit) [1]: hits

SMILES: CC[C@@]1(O)C[C@H](O[C@H]2C[C@H](N(C)C)[C@H](O[C@H]3C[C@@H]4O[C@H]5CC(=O)[C@H](C)O[C@H]5O[C@@H]4[C@H](C)O3)[C@H](C)O2)c2c(cc3c(c2O)C(=O)c2c(O)ccc(O)c2C3=O)[C@H]1C(=O)OC [Cinerubin B]
- reduction of Wolbachia-infection frequency (screen hit) [1]: hits

SMILES: CCCSc1ccc2nc(NC(=O)OC)[nH]c2c1 [Albendazole]
- Wolbachia per oocyte [3]: 194+/−20 Wolbachia per oocyte
- effect on M. tuberculosis FtsZ [9]: unaffected
